Patent US4870060A, “Derivatives of γ-cylodextrin” (Janssen Pharmaceutica, priority 1988, dated 1989)
Values after ≈ are worked out from the molar mass of the structure shown.

How the values were obtained:
[1] = content of 3-chloro-6-[3,6-dihydro-4-(3-methylphenyl)-1(2H)-pyridinyl]pyridazine in solutions of γ-CD derivatives (procedure of example 4); format: physicochemical
Procedure: (§1) Starting from a 5% stock solution of a particular γ-CD derivative in a phosphate buffer of pH 7.4, a dilution series was obtained with concentrations varying of from 0% to 5% with 0.5% steps. 3 ml of these solutions were pipetted into a closed container containing an appropriate amount of progesteron. After 5 days shaking at 25° C., the thus obtained mixture was filtered over a membrane filter (pore diameter: 0.22 μm), and the content of progesteron was determined with high pressure liquid chromatography (using a column of 25 cm length; 5 mm internal diameter; packed with 5 μm ODS-hypersil (RP-18); eluent: acetonitrile/water; U.V. detection). The results of these concentration measurements for a number of the γ-CD derivatives of the present invention and for unsubstituted γ-CD gathered in the following table.
Following the procedures described in example 4 the content of 3-chloro-6-[3,6-dihydro-4-(3-methylphenyl)-1(2H)-pyridinyl]pyridazine was determined in solutions containing various concentrations of γ-CD derivatives. Said pyridazine compound is described in Published Europ. Pat. Appl. No. 0,156,433 as a useful anti-viral agent.

[2] = content of progesteron dissolved in solutions of γ-CD derivatives (phosphate buffer pH 7.4, 5 days shaking at 25° C., HPLC); format: physicochemical; conditions: phosphate buffer pH 7.4, 25° C.
Procedure: as §1

[3] = cited from earlier work
[4] = 1% γ-CD or derivative (weight by volume)
[5] = 2.5% γ-CD or derivative (weight by volume)
[6] = 5% γ-CD or derivative (weight by volume)

With `Cc1cccc(C2=CCN(c3ccc(Cl)nn3)CC2)c1` [3-chloro-6-[3,6-dihydro-4-(3-methylphenyl)-1(2H)-pyridinyl]pyridazine] the solubility thermodynamic at 120 h ([1]; phosphate buffer ph 7.4, pH 7.4, aqueous buffer, 0% γ-CD derivative (weight by volume)) was 0.4 µg/mL (≈ 1.4 µM).
`CC(=O)[C@H]1CC[C@H]2[C@@H]3CCC4=CC(=O)CC[C@]4(C)[C@H]3CC[C@]12C` [progesteron] showed a solubility thermodynamic at 120 h ([2]; aqueous buffer, 0% γ-CD derivative (weight by volume)) of 5.9 µg/mL (≈ 18.8 µM).
`OC[C@H]1O[C@@H]2O[C@H]3[C@H](O)[C@@H](O)[C@@H](O[C@H]4[C@H](O)[C@@H](O)[C@@H](O[C@H]5[C@H](O)[C@@H](O)[C@@H](O[C@H]6[C@H](O)[C@@H](O)[C@@H](O[C@H]7[C@H](O)[C@@H](O)[C@@H](O[C@H]8[C@H](O)[C@@H](O)[C@@H](O[C@H]9[C@H](O)[C@@H](O)[C@@H](O[C@H]1[C@H](O)[C@H]2O)O[C@@H]9CO)O[C@@H]8CO)O[C@@H]7CO)O[C@@H]6CO)O[C@@H]5CO)O[C@@H]4CO)O[C@@H]3CO` [unsubstituted γ-CD, γ-cyclodextrin] gave a content of progesteron ([2]; 0.5% γ-CD or derivative (weight by volume)) of 425 µg/mL, a content of progesteron [2, 4] of 343 µg/mL and a content of progesteron ([2]; 1.5% γ-CD or derivative (weight by volume)) of 275 µg/mL. It also gave a content of progesteron ([2]; 2% γ-CD or derivative (weight by volume)) of 203 µg/mL, a content of progesteron [2, 5] of 163 µg/mL and a content of progesteron ([2]; 3% γ-CD or derivative (weight by volume)) of 93 µg/mL. It also gave a content of progesteron ([2]; 3.5% γ-CD or derivative (weight by volume)) of 60 µg/mL, a content of progesteron ([2]; 4% γ-CD or derivative (weight by volume)) of 54 µg/mL and a content of progesteron ([2]; 4.5% γ-CD or derivative (weight by volume)) of 46 µg/mL. The content of progesteron [2, 6] was 45 µg/mL, the “content of 3-chloro-6-[3,6-dihydro-4-(3-methylphenyl)-1(2H)-pyridinyl]pyridazine” value [1, 4] was 2.0 µg/mL and the “content of 3-chloro-6-[3,6-dihydro-4-(3-methylphenyl)-1(2H)-pyridinyl]pyridazine” value [1, 5] was 0.8 µg/mL. For the same molecule, the “content of 3-chloro-6-[3,6-dihydro-4-(3-methylphenyl)-1(2H)-pyridinyl]pyridazine” value [1, 6] was 0.8 µg/mL and the water solubility [3] was “excellent water solubility”.
